Test results as given in ChEMBL document CHEMBL3351608, “2-Phenylindole and Arylsulphonamide: Novel Scaffolds Bactericidal against Mycobacterium tuberculosis” (ACS Med Chem Lett, 2014).
Values after ≈ are worked out from the molar mass of the structure shown.

Key:
[1] = test system: Mycobacterium tuberculosis; assay type: functional; details: H37Rv, 120 h
[2] = test system: Mycobacterium tuberculosis; assay: microbe, parasite or virus in culture; details: 120 h

SMILES	MIC [1]	MIC [2]
Cc1cccc2c(CN3CCC(NS(C)(=O)=O)C3)c(-c3ccccc3)[nH]c12 (racemic)	1.6 µM (≈ 0.614 µg/mL)	
NNC(=O)c1ccncc1 [ISONIAZID]		0.5 µM (≈ 0.0686 µg/mL)
CC1COC2(CCN(c3nc(=O)c4cc(C(F)(F)F)cc([N+](=O)[O-])c4s3)CC2)O1 (centres undefined)		0.01 µM (≈ 0.00431 µg/mL)
CO[C@H]1/C=C/O[C@@]2(C)Oc3c(C)c(O)c4c(O)c(c(/C=N/N5CCN(C)CC5)c(O)c4c3C2=O)NC(=O)/C(C)=C\C=C\[C@H](C)[C@H](O)[C@@H](C)[C@@H](O)[C@@H](C)[C@H](OC(C)=O)[C@@H]1C [RIFAMPIN]		12.5 µM (≈ 10.3 µg/mL)
O=S(=O)(NC1CCN(Cc2ccncc2)CC1)c1ccc(-n2cccn2)cc1	3.3 µM (≈ 1.31 µg/mL)	1.6 µM (≈ 0.636 µg/mL)
COCCN(C1CCN(Cc2c(-c3ccccc3)[nH]c3c(C)cccc23)C1)S(C)(=O)=O (centres undefined)	0.8 µM (≈ 0.353 µg/mL)	1.6 µM (≈ 0.707 µg/mL)
Cc1cc(-n2cccn2)ccc1S(=O)(=O)NC1CCN(Cc2ccncc2)CC1	0.8 µM (≈ 0.329 µg/mL)	
